Patent US10878939B2, “Methods and compositions for personalized pain management” (Children's Hospital Medical Center, priority 2014, dated 2020)

Tested on: children undergoing tonsillectomy
Assay: Postoperative analgesia measurements by ABCB1 genotype (Example 7)
Conditions: for Maximum FLACC: median (IQR); for Post-Operative morphine: patients with at least one post-operative intervention
[1] = Blacks, ABCB1 Rs1128503 CC, N=24
[2] = Blacks, ABCB1 Rs1128503 TC, N=18
[3] = Blacks, ABCB1 Rs1128503 TT, N=2
[4] = Blacks, ABCB1 Rs2032582 GA, N=1
[5] = Blacks, ABCB1 Rs2032582 GG, N=35
[6] = Blacks, ABCB1 Rs2032582 GT, N=8
[7] = Blacks, ABCB1 Rs2229109 CA, N=1
[8] = Blacks, ABCB1 Rs2229109 CC, N=43
[9] = Blacks, ABCB1 Rs9282564 AA, N=41
[10] = Blacks, ABCB1 Rs9282564 GA, N=3
[11] = Blacks, ABCB1 rs10456542 CC, N=27
[12] = Blacks, ABCB1 rs10456542 TC, N=14
[13] = Blacks, ABCB1 rs10456542 TT, N=3
[14] = Whites, ABCB1 Rs1128503 CC, N=70
[15] = Whites, ABCB1 Rs1128503 TC, N=102
[16] = Whites, ABCB1 Rs1128503 TT, N=47
[17] = Whites, ABCB1 Rs2032582 GA, N=7
[18] = Whites, ABCB1 Rs2032582 GG, N=65
[19] = Whites, ABCB1 Rs2032582 GT, N=100
[20] = Whites, ABCB1 Rs2032582 TA, N=1
[21] = Whites, ABCB1 Rs2032582 TT, N=46
[22] = Whites, ABCB1 Rs2229109 CA, N=14
[23] = Whites, ABCB1 Rs2229109 CC, N=205
[24] = Whites, ABCB1 Rs9282564 AA, N=171
[25] = Whites, ABCB1 Rs9282564 GA, N=46
[26] = Whites, ABCB1 Rs9282564 GG, N=2
[27] = Whites, ABCB1 rs10456542 CC, N=49
[28] = Whites, ABCB1 rs10456542 TC, N=100
[29] = Whites, ABCB1 rs10456542 TT, N=70

Method: All participants received standard perioperative care. Anesthesia was induced using sevoflurane followed by a propofol (2 mg/kg) bolus to facilitate endotracheal intubation. Anesthesia was maintained with sevoflurane without the use of neuromuscular blockade. […] All children receive prophylactic ondansetron (0.1 mg/kg) and dexamethasone (0.1 mg/kg) intraoperatively.
Blood was collected from each participant in the operating room under anesthesia and the DNA was isolated the same day and stored at −20 degree Celsius. Batched genotyping was performed after clinical data was entered on all study participants. The TaqMan allelic discrimination system assays and Genotyper Softerware Version 1.0.1 (Life Technologies, Applied Biosystems, Forest City, Calif.) were used to analyse and report the following ABCB1 polymorphisms: rs1045642, rs2032582, rs1128503, rs2229109, and rs9282564.
Prior to analysis, data qualities were examined. For the ABCB1 variants, allelic and genotype frequencies were assessed in white and black patients separately, and Hardy Weinberg equilibrium (HWE) was tested. To analyze binary outcomes (RD, prolonged PACU secondary to RD and analgesic intervention need), logistic regression was performed. […] Thus, maximum FLACC scores were analyzed using a zero-inflated negative binomial model to appropriately capture the distribution of this variable. […] To select the best fitting model, log likelihood, Akaike and Bayesian Information criterion were compared, and residuals were examined. […] To assess the single SNP association with the outcomes, additive models were used, in which the genotypes were recoded and tested as continuous variables. For the four bi-allelic SNPs, genotypes were recoded to 0, 1 and 2 according to the number of minor alleles. For rs2032582, GG genotype was recoded as 0; GA and GT genotypes were combined and recoded as 1, and TT and TA genotypes as 2. Statistical modeling was conducted with white and black patients separately and combined. When races were combined, the effects of race and race*SNP interaction were tested.

## CN1CC[C@]23c4c5ccc(O)c4O[C@H]2[C@@H](O)C=C[C@H]3[C@H]1C5 [morphine]
263 patients
  median of maximum FLACC scores: 3
  patients who needed analgesic intervention(s): 62%
[1]
  Analges. % (analgesic interventions %): 88%
  Maximum FLACC: 5 (4-8)
Blacks, ABCB1 Rs1128503 CC, N=24, mean ± SD
  Post-Operative morphine: 0.12 ± 0.08 mg/kg
[2]
  Analges. % (analgesic interventions %): 89%
  Maximum FLACC: 6 (3-9)
Blacks, ABCB1 Rs1128503 TC, N=18, mean ± SD
  Post-Operative morphine: 0.13 ± 0.05 mg/kg
[3]
  Analges. % (analgesic interventions %): 100%
  Maximum FLACC: 4 (0-8)
Blacks, ABCB1 Rs1128503 TT, N=2, mean ± SD
  Post-Operative morphine: 0.08 ± 0.03 mg/kg
[4]
  Analges. % (analgesic interventions %): 100%
  Maximum FLACC: 4 (4-4)
  Post-Operative morphine: 0.08 mg/kg
[5]
  Analges. % (analgesic interventions %): 91%
  Maximum FLACC: 5 (3-8)
Blacks, ABCB1 Rs2032582 GG, N=35, mean ± SD
  Post-Operative morphine: 0.12 ± 0.07 mg/kg
[6]
  Analges. % (analgesic interventions %): 75%
  Maximum FLACC: 8 (2-9)
Blacks, ABCB1 Rs2032582 GT, N=8, mean ± SD
  Post-Operative morphine: 0.11 ± 0.04 mg/kg
[7]
  Analges. % (analgesic interventions %): 100%
  Maximum FLACC: 8 (8-8)
  Post-Operative morphine: 0.04 mg/kg
[8]
  Analges. % (analgesic interventions %): 88%
  Maximum FLACC: 5 (3-8)
Blacks, ABCB1 Rs2229109 CC, N=43, mean ± SD
  Post-Operative morphine: 0.12 ± 0.06 mg/kg
[9]
  Analges. % (analgesic interventions %): 88%
  Maximum FLACC: 5 (3-8)
Blacks, ABCB1 Rs9282564 AA, N=41, mean ± SD
  Post-Operative morphine: 0.12 ± 0.07 mg/kg
[10]
  Analges. % (analgesic interventions %): 100%
  Maximum FLACC: 8 (8-10)
Blacks, ABCB1 Rs9282564 GA, N=3, mean ± SD
  Post-Operative morphine: 0.10 ± 0.00 mg/kg
[11]
  Analges. % (analgesic interventions %): 89%
  Maximum FLACC: 5 (4-8)
Blacks, ABCB1 rs10456542 CC, N=27, mean ± SD
  Post-Operative morphine: 0.12 ± 0.07 mg/kg
[12]
  Analges. % (analgesic interventions %): 86%
  Maximum FLACC: 7 (1-8)
Blacks, ABCB1 rs10456542 TC, N=14, mean ± SD
  Post-Operative morphine: 0.12 ± 0.05 mg/kg
[13]
  Analges. % (analgesic interventions %): 100%
  Maximum FLACC: 8 (3-8)
Blacks, ABCB1 rs10456542 TT, N=3, mean ± SD
  Post-Operative morphine: 0.12 ± 0.11 mg/kg
[14]
  Analges. % (analgesic interventions %): 57%
  Maximum FLACC: 3 (0-5)
Whites, ABCB1 Rs1128503 CC, N=70, mean ± SD
  Post-Operative morphine: 0.09 ± 0.04 mg/kg
[15]
  Analges. % (analgesic interventions %): 57%
  Maximum FLACC: 2 (0-5)
Whites, ABCB1 Rs1128503 TC, N=102, mean ± SD
  Post-Operative morphine: 0.10 ± 0.05 mg/kg
[16]
  Analges. % (analgesic interventions %): 53%
  Maximum FLACC: 1 (0-5)
Whites, ABCB1 Rs1128503 TT, N=47, mean ± SD
  Post-Operative morphine: 0.08 ± 0.04 mg/kg
[17]
  Analges. % (analgesic interventions %): 43%
  Maximum FLACC: 2 (1-5)
Whites, ABCB1 Rs2032582 GA, N=7, mean ± SD
  Post-Operative morphine: 0.09 ± 0.05 mg/kg
[18]
  Analges. % (analgesic interventions %): 58%
  Maximum FLACC: 4 (0-6)
Whites, ABCB1 Rs2032582 GG, N=65, mean ± SD
  Post-Operative morphine: 0.09 ± 0.04 mg/kg
[19]
  Analges. % (analgesic interventions %): 57%
  Maximum FLACC: 2 (0-5)
Whites, ABCB1 Rs2032582 GT, N=100, mean ± SD
  Post-Operative morphine: 0.09 ± 0.05 mg/kg
[20]
  Analges. % (analgesic interventions %): 100%
  Maximum FLACC: 8 (8-8)
  Post-Operative morphine: 0.21 mg/kg
[21]
  Analges. % (analgesic interventions %): 52%
  Maximum FLACC: 1 (1-5)
Whites, ABCB1 Rs2032582 TT, N=46, mean ± SD
  Post-Operative morphine: 0.09 ± 0.04 mg/kg
[22]
  Analges. % (analgesic interventions %): 50%
  Maximum FLACC: 2 (1-4)
Whites, ABCB1 Rs2229109 CA, N=14, mean ± SD
  Post-Operative morphine: 0.06 ± 0.02 mg/kg
[23]
  Analges. % (analgesic interventions %): 57%
  Maximum FLACC: 2 (0-5)
Whites, ABCB1 Rs2229109 CC, N=205, mean ± SD
  Post-Operative morphine: 0.09 ± 0.05 mg/kg
[24]
  Analges. % (analgesic interventions %): 56%
  Maximum FLACC: 2 (0-5)
Whites, ABCB1 Rs9282564 AA, N=171, mean ± SD
  Post-Operative morphine: 0.09 ± 0.04 mg/kg
[25]
  Analges. % (analgesic interventions %): 54%
  Maximum FLACC: 2 (0-4)
Whites, ABCB1 Rs9282564 GA, N=46, mean ± SD
  Post-Operative morphine: 0.09 ± .05 mg/kg
[26]
  Analges. % (analgesic interventions %): 100%
  Maximum FLACC: 7 (6-7)
Whites, ABCB1 Rs9282564 GG, N=2, mean ± SD
  Post-Operative morphine: 0.16 ± 0.07 mg/kg
[27]
  Analges. % (analgesic interventions %): 63%
  Maximum FLACC: 4 (0-6)
Whites, ABCB1 rs10456542 CC, N=49, mean ± SD
  Post-Operative morphine: 0.09 ± 0.03 mg/kg
[28]
  Analges. % (analgesic interventions %): 52%
  Maximum FLACC: 2 (0-4)
Whites, ABCB1 rs10456542 TC, N=100, mean ± SD
  Post-Operative morphine: 0.09 ± 0.05 mg/kg
[29]
  Analges. % (analgesic interventions %): 57%
  Maximum FLACC: 2 (1-5)
Whites, ABCB1 rs10456542 TT, N=70, mean ± SD
  Post-Operative morphine: 0.10 ± 0.05 mg/kg
average
  post-operative morphine in patients who needed intervention: 0.10 ± 0.05 mg/kg
